Assay results published in US9862679B2, “Potent and selective inhibitors of monoamine transporters; method of making; and use thereof” (priority 2013, dated 2018).
Like-named read-outs stand apart in the source and are kept apart here.

Key:
[1] = target: norepinephrine transporter (NET) (Rattus norvegicus, UniProt Q63380); details: rat brain membranes; for Ki: read-out: Ki (nM) ± S.E.M. NET
Procedure: Binding affinities of all compounds were evaluated at the DAT, SERT, and NET in rat brain membranes using previously described methods:
Norepinephrine Transporter Binding Assay. Brains from male Sprague-Dawley rats weighing 200-225 g (Taconic Labs, Germantown, N.Y.) were removed, frontal cortex dissected and rapidly frozen. Membranes were prepared by homogenizing tissues in 20 volumes (w/v) of 50 mM Tris containing 120 mM NaCl and 5 mM KCl, (pH 7.4 at 25° C.), using a Brinkman Polytron and centrifuged at 50,000×g for 10 min at 4° C. The resulting pellet was resuspended in buffer, recentrifuged and resuspended in buffer to a concentration of 80 mg/mL. Ligand binding experiments were conducted in assay tubes containing 0.5 mL buffer for 60 min at 0-4° C. […] Nonspecific binding was determined using 1 mM desipramine. Incubations were terminated by rapid filtration through Whatman GF/B filters, presoaked in 0.05% polyethylenimine, using a Brandel R48 filtering manifold (Brandel Instruments Gaithersburg, Md.). The filters were washed twice with 3 mL cold buffer and transferred to scintillation vials. Beckman Ready Value (3.0 mL) was added and the vials were counted using a Beckman 6000 liquid scintillation counter (Beckman Coulter Instruments, Fullerton, Calif.). […] All compounds were tested as racemic mixtures.

[2] = target: serotonin transporter (SERT) (Rattus norvegicus (Rat), UniProt P31652); details: for Ki: rat brain membranes
Procedure: Brains from male Sprague-Dawley rats weighing 200-225 g (Taconic Labs, Germantown, N.Y.) were removed, midbrain dissected and rapidly frozen. […] Nonspecific binding was determined using 10 mM fluoxetine. […] The filters were washed twice with 3 mL cold buffer and transferred to scintillation vials. Beckman Ready Value (3.0 mL) was added and the vials were counted the next day using a Beckman 6000 liquid scintillation counter (Beckman Coulter Instruments, Fullerton, Calif.). […] Data were analyzed with GraphPad Prism software (San Diego, Calif.).

[3] = target: dopamine transporter (DAT) (Rattus norvegicus (Rat), UniProt P23977); experiment: Dopamine Transporter Binding Assay ([3H]WIN 35428, rat striatal membranes)
[4] = target: Sigma 1 (Homo sapiens (Human), UniProt Q99720); experiment: Sigma 1 binding affinity (Table 5)
[5] = target: Sigma 2 (Homo sapiens (Human), UniProt Q5BJF2); experiment: Sigma 2 binding affinity (Table 5)
[6] = Table 1 thioacetamides and sulfinylacetamides
[7] = read-out: Ki (nM) ± S.E.M. SERT, Table 1 thioacetamides and sulfinylacetamides
[8] = rat brain membranes, Table 1 thioacetamides and sulfinylacetamides, read-out: Ki (nM) ± S.E.M. DAT
[9] = Table 5 piperazinyl derivatives, read-out: Sigma 1 Ki ± SEM
[10] = read-out: SERT Ki ± SEM, Table 5 piperazinyl derivatives
[11] = Table 5 piperazinyl derivatives, read-out: Sigma 2 Ki ± SEM
[12] = rat brain membranes, Table 5 piperazinyl derivatives, read-out: DAT Ki ± SEM
[13] = Table 2 thioethanamines and sulfinylethanamines
[14] = read-out: Ki (nM) ± S.E.M. SERT, Table 2 thioethanamines and sulfinylethanamines
[15] = rat brain membranes, Table 2 thioethanamines and sulfinylethanamines, read-out: Ki (nM) ± S.E.M. DAT

Chain of norepinephrine transporter (NET) (Q63380 1-617): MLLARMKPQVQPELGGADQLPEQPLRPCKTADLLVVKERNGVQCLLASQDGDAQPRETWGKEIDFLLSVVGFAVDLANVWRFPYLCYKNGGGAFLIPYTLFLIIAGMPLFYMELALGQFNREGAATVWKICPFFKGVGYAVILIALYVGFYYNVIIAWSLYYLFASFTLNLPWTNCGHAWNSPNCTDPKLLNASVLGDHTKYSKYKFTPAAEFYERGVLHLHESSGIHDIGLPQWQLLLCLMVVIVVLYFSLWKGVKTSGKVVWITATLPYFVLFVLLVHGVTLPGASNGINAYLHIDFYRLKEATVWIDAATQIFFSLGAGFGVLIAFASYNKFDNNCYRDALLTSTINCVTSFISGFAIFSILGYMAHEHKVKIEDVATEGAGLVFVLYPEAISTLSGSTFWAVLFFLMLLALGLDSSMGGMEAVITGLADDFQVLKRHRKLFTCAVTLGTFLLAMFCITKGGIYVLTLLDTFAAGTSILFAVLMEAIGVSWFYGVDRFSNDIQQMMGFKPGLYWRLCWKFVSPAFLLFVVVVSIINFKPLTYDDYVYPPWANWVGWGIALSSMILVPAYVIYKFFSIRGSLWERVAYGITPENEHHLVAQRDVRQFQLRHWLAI
Chain of serotonin transporter (SERT) (P31652 whole entry): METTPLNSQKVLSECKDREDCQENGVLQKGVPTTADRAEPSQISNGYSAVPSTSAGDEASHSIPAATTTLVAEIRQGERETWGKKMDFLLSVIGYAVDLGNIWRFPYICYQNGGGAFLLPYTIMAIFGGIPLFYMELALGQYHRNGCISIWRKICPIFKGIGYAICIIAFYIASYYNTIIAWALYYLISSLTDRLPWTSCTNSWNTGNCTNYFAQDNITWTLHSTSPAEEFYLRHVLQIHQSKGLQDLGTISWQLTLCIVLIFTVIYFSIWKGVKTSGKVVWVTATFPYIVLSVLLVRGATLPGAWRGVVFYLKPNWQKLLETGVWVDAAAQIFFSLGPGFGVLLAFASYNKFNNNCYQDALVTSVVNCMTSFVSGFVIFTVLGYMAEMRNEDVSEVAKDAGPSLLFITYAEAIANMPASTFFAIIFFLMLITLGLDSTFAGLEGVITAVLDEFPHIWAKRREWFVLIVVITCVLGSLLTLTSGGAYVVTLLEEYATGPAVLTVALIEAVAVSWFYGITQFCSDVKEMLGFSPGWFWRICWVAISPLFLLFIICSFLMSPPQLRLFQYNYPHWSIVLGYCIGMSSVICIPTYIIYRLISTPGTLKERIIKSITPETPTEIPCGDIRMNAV
Chain of dopamine transporter (DAT) (P23977 whole entry): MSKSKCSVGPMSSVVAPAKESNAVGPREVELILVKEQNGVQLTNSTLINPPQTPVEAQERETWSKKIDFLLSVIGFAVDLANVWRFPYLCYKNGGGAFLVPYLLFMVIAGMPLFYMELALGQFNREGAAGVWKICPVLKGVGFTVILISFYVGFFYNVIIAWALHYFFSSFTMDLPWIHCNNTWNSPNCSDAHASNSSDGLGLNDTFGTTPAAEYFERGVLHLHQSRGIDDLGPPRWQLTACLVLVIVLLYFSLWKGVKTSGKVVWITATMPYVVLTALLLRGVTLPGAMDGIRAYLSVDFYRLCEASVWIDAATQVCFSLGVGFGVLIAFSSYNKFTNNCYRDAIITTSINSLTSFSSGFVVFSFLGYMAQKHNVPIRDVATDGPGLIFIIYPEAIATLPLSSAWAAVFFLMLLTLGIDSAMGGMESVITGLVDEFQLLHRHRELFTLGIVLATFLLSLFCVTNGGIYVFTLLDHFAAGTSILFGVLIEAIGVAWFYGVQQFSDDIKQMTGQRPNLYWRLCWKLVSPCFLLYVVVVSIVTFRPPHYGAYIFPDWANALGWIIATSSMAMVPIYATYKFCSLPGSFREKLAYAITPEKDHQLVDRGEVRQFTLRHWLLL
Chain of Sigma 1 (Q99720 whole entry): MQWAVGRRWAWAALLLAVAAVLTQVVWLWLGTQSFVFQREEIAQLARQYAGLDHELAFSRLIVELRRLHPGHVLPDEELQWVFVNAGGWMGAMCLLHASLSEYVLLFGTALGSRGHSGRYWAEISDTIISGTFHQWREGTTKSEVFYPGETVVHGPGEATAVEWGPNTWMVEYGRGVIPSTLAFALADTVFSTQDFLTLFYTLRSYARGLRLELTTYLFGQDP
Chain of Sigma 2 (Q5BJF2 whole entry): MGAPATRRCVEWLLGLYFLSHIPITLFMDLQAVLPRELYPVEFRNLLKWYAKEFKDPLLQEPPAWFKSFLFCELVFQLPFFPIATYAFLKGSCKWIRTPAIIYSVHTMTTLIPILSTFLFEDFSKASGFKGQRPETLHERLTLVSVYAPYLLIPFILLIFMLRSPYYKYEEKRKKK

## C=CCNC(=O)CSC(c1ccccc1)c1ccccc1 [Compound 2j, N-Allyl-2-(benzhydrylthio)acetamide]
[1]; [6]
  Ki: > 230000 nM
[2]; [7]
  Ki: > 300000 nM
[3]; [8]
  Ki: 9190 nM

## O=C(C[S+]([O-])C(c1ccccc1)c1ccccc1)N1CCN(CCCc2ccccc2)CC1 (centres unmarked) [Compound 12a, 2-(Benzhydrylsulfinyl)-1-(4-(3-phenylpropyl)piperazin-1-yl)ethan-1-one]
[4]; [9]
  Ki: 1.43 ± 0.0211 µM
[2]; [10]
  Ki: 15200 ± 1100 nM
[5]; [11]
  Ki: 0.469 ± 0.0664 µM
[3]; [12]
  Ki: 33 ± 2.83 nM

## CCCCNCC[S+]([O-])C(c1ccccc1)c1ccccc1 (centres unmarked) [Compound 5b, N-(2-(benzhydrylsulfinyl)ethyl)butan-1-amine]
[1]; [13]
  Ki: > 140000 nM
[2]; [14]
  Ki: 64600 nM
[3]; [15]
  Ki: 1580 nM

## [O-][S+](CCNCCCc1ccccc1)C(c1ccc(F)cc1)c1ccc(F)cc1 (centres unmarked) [Compound 5c, N-(2-((bis(4-fluorophenyl)methyl)sulfinyl)ethyl)-3-phenylpropan-1-amine]
[1]; [13]
  Ki: 3280 nM
[2]; [14]
  Ki: 1310 nM
[3]; [15]
  Ki: 200 ± 38.7 nM

## CCCCNC(=O)CSC(c1ccc(Br)cc1)c1ccc(Br)cc1 [Compound 2t, 2-((Bis(4-bromophenyl)methyl)thio)-N-butylacetamide]
[2]; [7]
  Ki: 7090 nM
[3]; [8]
  Ki: 729 ± 69.3 nM

## CNC(=O)C[S+]([O-])C(c1ccccc1)c1ccccc1 (centres unmarked) [Compound 3f, 2-(Benzhydrylsulfinyl)-N-methylacetamide]
[1]; [6]
  Ki: > 100000 nM
[2]; [7]
  Ki: > 100000 nM
[3]; [8]
  Ki: 13400 nM

## CCCNC(=O)CSC(c1ccc(Br)cc1)c1ccc(Br)cc1 [Compound 2n, 2-((Bis(4-bromophenyl)methyl)thio)-N-propylacetamide]
[1]; [6]
  Ki: 10600 nM

## [O-][S+](CCNCCCc1ccccc1)C(c1ccccc1)c1ccccc1 (centres unmarked) [Compound 200, reference compound]
[2]; [14]
  Ki: 1000 nM
[3]; read-out: Ki (nM) ± S.E.M. DAT
  Ki: 194 ± 16.8 nM

## CNC(=O)CSC(c1ccc(Cl)cc1)c1ccc(Cl)cc1 [Compound 2h, 2-((Bis(4-chlorophenyl)methyl)thio)-N-methylacetamide]
[2]; [7]
  Ki: > 30000 nM

## Brc1ccc(C(SCCNCCCc2ccccc2)c2ccc(Br)cc2)cc1 [Compound 4i, N-(2-((bis(4-bromophenyl)methyl)thio)ethyl)-3-phenylpropan-1-amine]
[2]; [14]
  Ki: 163 ± 7.49 nM
[3]; read-out: Ki (nM) ± S.E.M. DAT
  Ki: 618 ± 53 nM

## NC(=O)CSC(c1ccccc1)c1ccccc1 [Compound 2a, 2-(Benzhydrylthio)acetamide]
[1]; [6]
  Ki: > 100000 nM

## CCCNC(=O)CSC(c1ccccc1)c1ccccc1 [Compound 2k, 2-(Benzhydrylthio)-N-propylacetamide]
[1]; [6]
  Ki: 55900 nM
[2]; [7]
  Ki: > 550000 nM
[3]; [8]
  Ki: 20700 nM

## CNC(=O)CSC(c1ccccc1)c1ccccc1 [Compound 2g, 2-(Benzhydrylthio)-N-methylacetamide]
[1]; [6]
  Ki: 27300 nM
[2]; [7]
  Ki: > 300000 nM
[3]; [8]
  Ki: 19400 nM

## NCCSC(c1ccccc1)c1ccccc1 [Compound 4a, 2-(benzhydrylthio)ethan-1-amine]
[1]; [13]
  Ki: 982 ± 43.3 nM
[2]; [14]
  Ki: 226 ± 30.6 nM
[3]
  improved affinity at the DAT compared to (±)-modafinil: about 20 fold
[3]; read-out: Ki (nM) ± S.E.M. DAT
  Ki: 143 nM

## O=C(CSC(c1ccc(Br)cc1)c1ccc(Br)cc1)NCCCc1ccccc1 [Compound 2x, 2-((Bis(4-bromophenyl)methyl)thio)-N-(3-phenylpropyl)acetamide]
[1]; [6]
  Ki: 36300 nM
[2]; [7]
  Ki: 60800 nM
[3]; [8]
  Ki: 244 ± 36.4 nM

## NC(=O)CSC(c1ccc(Cl)cc1)c1ccc(Cl)cc1 [Compound 100, reference compound]
[2]; [7]
  Ki: 12700 nM
[3]; read-out: Ki (nM) ± S.E.M. DAT
  Ki: 2230 nM

## CCCCNC(=O)CSC(c1ccccc1)c1ccccc1 [Compound 2r, 2-(Benzhydrylthio)-N-butylacetamide]
[1]; [6]
  Ki: > 100000 nM
[2]; [7]
  Ki: > 100000 nM
[3]; [8]
  Ki: 24000 nM

## O=C(CSC(c1ccc(Br)cc1)c1ccc(Br)cc1)NCCCCc1ccccc1 [Compound 2z, 2-((Bis(4-bromophenyl)methyl)thio)-N-(4-phenylbutyl)acetamide]
[1]; [6]
  Ki (nM) ± S.E.M. NET: no displacement
  Ki: > 100000 nM
[2]; [7]
  Ki: > 100000 nM

## c1ccc(CCCNCCSC(c2ccccc2)c2ccccc2)cc1 [Compound 4f, N-(2-(benzhydrylthio)ethyl)-3-phenylpropan-1-amine]
[1]; [13]
  Ki: 3910 nM
[2]; [14]
  Ki: 853 ± 127 nM
[3]; [15]
  Ki: 297 ± 28.2 nM

## O=C(CSC(c1ccccc1)c1ccccc1)N1CCN(CCCc2ccccc2)CC1 [Compound 11a, 2-(Benzhydrylthio)-1-(4-(3-phenylpropyl)piperazin-1-yl)ethan-1-one]
[4]
  Ki: 1.12 ± 0.0203 µM
[5]
  Ki: 0.773 µM
[3]; [12]
  Ki: 47.2 ± 5.56 nM

## O=C(CSC(c1ccccc1)c1ccccc1)NCCCc1ccccc1 [Compound 2u, 2-(Benzhydrylthio)-N-(3-phenylpropyl)acetamide]
[3]; read-out: Ki (nM) ± S.E.M. DAT
  Ki: 2020 nM

## CCCCNC(=O)CSC(c1ccc(F)cc1)c1ccc(F)cc1 [Compound 2s, 2-((Bis(4-fluorophenyl)methyl)thio)-N-butylacetamide]
[3]; [8]
  Ki: 6470 nM

## [O-][S+](CCNCCCc1ccccc1)C(c1ccc(Br)cc1)c1ccc(Br)cc1 (centres unmarked) [Compound 5e, N-(2-((bis(4-bromophenyl)methyl)sulfinyl)ethyl)-3-phenylpropan-1-amine]
[1]; [13]
  Ki: 7580 nM
[2]; [14]
  Ki: 564 ± 65.3 nM
[3]; [15]
  Ki: 1290 nM

## [O-][S+](CCN1CCN(CC(O)Cc2ccccc2)CC1)C(c1ccc(F)cc1)c1ccc(F)cc1 (racemic) [Compound 10j, 1-(4-(2-((Bis(4-fluorophenyl)methyl)sulfinyl)ethyl)piperazin-1-yl)-3-phenylpropan-2-ol]
[4]
  Ki: 0.336 ± 0.0422 µM
[2]; [10]
  Ki: 4610 ± 562 nM
[5]; [11]
  Ki: 0.176 ± 0.0263 µM
[3]; [12]
  Ki: 2.53 ± 0.25 nM

## NCC[S+]([O-])C(c1ccccc1)c1ccccc1 (centres unmarked) [Compound 5a, 2-(Benzhydrylsulfinyl)ethan-1-amine]
[2]; [14]
  Ki: 3420 nM

## CCCCNCCSC(c1ccccc1)c1ccccc1 [Compound 4e, N-(2-(benzhydrylthio)ethyl)butan-1-amine]
[1]; [13]
  Ki: 11500 nM
[2]; [14]
  Ki: 5820 nM
[3]; [15]
  Ki: 315 ± 39.9 nM

## CC(O)CN1CCN(CCSC(c2ccc(F)cc2)c2ccc(F)cc2)CC1 (racemic) [Compound 9d, 1-(4-(2-((Bis(4-fluorophenyl)methyl)thio)ethyl)piperazin-1-yl)propan-2-ol]
[4]; [9]
  Ki: 0.00403 ± 0.00022 µM
[2]; [10]
  Ki: 1770 ± 234 nM
[5]; [11]
  Ki: 0.0847 ± 0.0119 µM

## CNC(=O)CSC(c1ccc(Br)cc1)c1ccc(Br)cc1 [Compound 2i, 2-((Bis(4-bromophenyl)methyl)thio)-N-methylacetamide]
[1]; [6]
  Ki: 11200 nM
[2]; 2i v. 2g (Table 1), 4c v. 4a (Table 2)
  increase in SERT affinity, halogen-substituted v. unsubstituted analogue: > 50 fold
[2]; [7]
  Ki: 5750 nM
[3]
  improvement in DAT affinity, halogen-substituted v. unsubstituted analogue: 6 fold
[3]; [8]
  Ki: 3030 nM

## CCCNC(=O)CSC(c1ccc(Cl)cc1)c1ccc(Cl)cc1 [Compound 2m, 2-((Bis(4-chlorophenyl)methyl)thio)-N-propylacetamide]
[2]; [7]
  Ki: 10300 nM

## NC(=O)C[S+]([O-])C(c1ccc(C(F)(F)F)cc1)c1ccc(C(F)(F)F)cc1 (centres unmarked) [Compound 3b, 2-((Bis(4-(trifluoromethyl)phenyl)methyl)sulfinyl)acetamide]
[3]; [8]
  Ki: 35400 nM

## O=C(CSC(c1ccccc1)c1ccccc1)NCCCCc1ccccc1 [Compound 2y, 2-(Benzhydrylthio)-N-(4-phenylbutyl)acetamide]
[3]; read-out: Ki (nM) ± S.E.M. DAT
  Ki: 1160 nM

## NC(=O)CSC(c1cccc(Cl)c1)c1cccc(Cl)c1 [Compound 2e, 2-((Bis(3-chlorophenyl)methyl)thio)acetamide]
[1]; [6]
  Ki: 34000 nM
[2]; [7]
  Ki: 739000 nM
[3]; [8]
  Ki: 277 ± 18.3 nM

## c1ccc(C(SCCNCC2CC2)c2ccccc2)cc1 [Compound 4d, 2-(benzhydrylthio)-N-(cyclopropylmethyl)ethan-1-amine]
[2]; [14]
  Ki: 10000 nM
[3]; read-out: Ki (nM) ± S.E.M. DAT
  Ki: 437 ± 30.1 nM

## O=C(CSC(c1ccc(F)cc1)c1ccc(F)cc1)NCCCc1ccccc1 [Compound 2v, 2-((Bis(4-fluorophenyl)methyl)thio)-N-(3-phenylpropyl)acetamide]
[1]; [6]
  Ki: > 100000 nM
[2]; [7]
  Ki: 3640 nM

## O=C(C[S+]([O-])C(c1ccc(Br)cc1)c1ccc(Br)cc1)NCCCc1ccccc1 (centres unmarked) [Compound 3g, 2-(Bis(4-bromophenyl)methylsulfinyl)-N-(3-phenylpropyl)acetamide]
[1]; [6]
  Ki: > 100000 nM
[2]; [7]
  Ki: 906 ± 113 nM
[3]; [8]
  Ki: 1290 nM

## CCCNC(=O)CSC(c1ccc(F)cc1)c1ccc(F)cc1 [Compound 2l, 2-((Bis(4-fluorophenyl)methyl)thio)-N-propylacetamide]
[1]; [6]
  Ki: 61700 nM
[2]; [7]
  Ki: 45100 nM
[3]; [8]
  Ki: 12000 nM

## [O-][S+](CCNCCCc1ccccc1)C(c1ccc(Cl)cc1)c1ccc(Cl)cc1 (centres unmarked) [Compound 5d, N-(2-((bis(4-chlorophenyl)methyl)sulfinyl)ethyl)-3-phenylpropan-1-amine]
[1]; [13]
  Ki: 5800 nM
[2]; [14]
  Ki: 542 ± 42.6 nM
[3]; [15]
  Ki: 660 ± 76.9 nM
